Here are results for three molecules from ChEMBL document CHEMBL3217558 (Medchemcomm, 2012).

Each structure is given as a SMILES string.

What is called IC50 is the concentration that inhibits the measured activity by half. Read a low IC50 as inhibition by little substance.

Assay [1] addresses Voltage-gated inwardly rectifying potassium channel KCNH2 (Homo sapiens, UniProt Q12809).
Assay [2] addresses Hepatocyte growth factor receptor (Homo sapiens, UniProt P08581).
Description: Inhibition of c-Met (unknown origin) using poly (Glu, Tyr) 4:1 as substrate after 60 mins by ELISA

Voltage-gated inwardly rectifying potassium channel KCNH2, sequence (Q12809 whole entry): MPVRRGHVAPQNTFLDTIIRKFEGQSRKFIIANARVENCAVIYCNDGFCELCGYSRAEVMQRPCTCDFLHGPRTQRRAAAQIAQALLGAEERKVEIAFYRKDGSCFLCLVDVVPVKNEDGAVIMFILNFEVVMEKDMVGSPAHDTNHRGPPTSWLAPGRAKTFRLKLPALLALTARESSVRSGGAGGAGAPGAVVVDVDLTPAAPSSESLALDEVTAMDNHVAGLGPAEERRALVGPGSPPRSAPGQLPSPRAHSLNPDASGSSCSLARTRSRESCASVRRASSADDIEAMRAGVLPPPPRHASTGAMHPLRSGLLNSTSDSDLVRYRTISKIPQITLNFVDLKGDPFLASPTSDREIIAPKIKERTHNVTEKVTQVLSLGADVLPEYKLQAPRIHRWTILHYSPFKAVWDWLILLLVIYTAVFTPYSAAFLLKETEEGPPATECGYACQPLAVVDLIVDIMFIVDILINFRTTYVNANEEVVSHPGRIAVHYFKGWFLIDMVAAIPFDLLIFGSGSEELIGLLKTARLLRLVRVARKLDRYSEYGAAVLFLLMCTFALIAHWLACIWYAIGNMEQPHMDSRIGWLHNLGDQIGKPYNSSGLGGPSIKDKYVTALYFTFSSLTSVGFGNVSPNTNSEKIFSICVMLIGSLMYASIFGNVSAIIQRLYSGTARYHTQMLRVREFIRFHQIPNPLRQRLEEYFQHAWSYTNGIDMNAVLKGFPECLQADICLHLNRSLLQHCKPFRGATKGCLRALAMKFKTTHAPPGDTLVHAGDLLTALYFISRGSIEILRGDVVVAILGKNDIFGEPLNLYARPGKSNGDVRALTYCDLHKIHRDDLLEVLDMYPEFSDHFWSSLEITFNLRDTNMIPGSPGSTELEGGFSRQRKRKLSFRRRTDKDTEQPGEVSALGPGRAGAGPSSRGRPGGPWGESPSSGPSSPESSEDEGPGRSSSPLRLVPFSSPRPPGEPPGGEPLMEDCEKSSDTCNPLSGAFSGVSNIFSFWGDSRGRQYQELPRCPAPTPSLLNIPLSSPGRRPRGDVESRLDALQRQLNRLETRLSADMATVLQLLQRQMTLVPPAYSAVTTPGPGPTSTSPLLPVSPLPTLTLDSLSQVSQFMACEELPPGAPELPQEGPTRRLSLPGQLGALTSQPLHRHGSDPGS
Hepatocyte growth factor receptor, sequence (P08581 whole entry): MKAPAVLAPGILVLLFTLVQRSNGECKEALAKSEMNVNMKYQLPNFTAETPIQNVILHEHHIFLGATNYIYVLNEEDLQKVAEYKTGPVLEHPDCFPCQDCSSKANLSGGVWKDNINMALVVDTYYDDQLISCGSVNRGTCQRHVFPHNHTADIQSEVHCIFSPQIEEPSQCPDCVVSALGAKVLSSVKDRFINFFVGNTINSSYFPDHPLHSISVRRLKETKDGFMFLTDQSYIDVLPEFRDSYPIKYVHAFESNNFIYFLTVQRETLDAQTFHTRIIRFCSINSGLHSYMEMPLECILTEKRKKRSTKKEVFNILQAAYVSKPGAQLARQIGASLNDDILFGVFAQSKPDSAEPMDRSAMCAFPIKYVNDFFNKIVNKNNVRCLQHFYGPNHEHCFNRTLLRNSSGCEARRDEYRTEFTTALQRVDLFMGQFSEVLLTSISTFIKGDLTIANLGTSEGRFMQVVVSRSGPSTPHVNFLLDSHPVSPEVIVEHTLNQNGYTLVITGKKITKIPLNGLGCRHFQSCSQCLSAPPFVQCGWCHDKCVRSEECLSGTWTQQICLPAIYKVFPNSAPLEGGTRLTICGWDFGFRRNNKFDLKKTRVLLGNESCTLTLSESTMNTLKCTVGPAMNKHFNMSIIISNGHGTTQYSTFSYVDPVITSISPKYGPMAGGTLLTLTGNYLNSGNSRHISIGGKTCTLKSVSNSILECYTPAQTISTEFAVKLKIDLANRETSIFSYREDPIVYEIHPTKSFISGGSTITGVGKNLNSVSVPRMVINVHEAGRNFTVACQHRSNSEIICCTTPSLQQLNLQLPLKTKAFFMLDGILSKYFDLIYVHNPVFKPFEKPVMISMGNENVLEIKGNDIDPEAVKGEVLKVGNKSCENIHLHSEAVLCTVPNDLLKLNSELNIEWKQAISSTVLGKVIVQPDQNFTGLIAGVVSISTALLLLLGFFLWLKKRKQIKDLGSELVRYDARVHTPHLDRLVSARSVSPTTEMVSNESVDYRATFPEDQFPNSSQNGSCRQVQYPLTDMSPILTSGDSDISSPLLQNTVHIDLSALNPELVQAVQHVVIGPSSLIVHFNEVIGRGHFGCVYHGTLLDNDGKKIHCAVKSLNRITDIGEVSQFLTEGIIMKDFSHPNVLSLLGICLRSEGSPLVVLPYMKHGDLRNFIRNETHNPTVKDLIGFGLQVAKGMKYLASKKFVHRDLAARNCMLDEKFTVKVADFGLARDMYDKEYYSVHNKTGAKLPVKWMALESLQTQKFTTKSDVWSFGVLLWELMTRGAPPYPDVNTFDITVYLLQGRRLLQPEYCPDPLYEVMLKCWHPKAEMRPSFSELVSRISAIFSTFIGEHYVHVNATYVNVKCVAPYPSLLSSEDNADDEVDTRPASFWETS

For `CC(=O)c1cccc(CNc2cc(C(F)(F)F)cc3ncc(N4CCN(C)CC4)cc23)c1`, the IC50 in assay [1] was 93.6 µM. Still for that read-out and setting: the value for `CCNC(=O)Nc1cccc(CNc2cc(C(F)(F)F)cc3ncc(N4CCN(C)CC4)cc23)c1` was 81.7 µM. `[2H]C(Nc1cc(C(F)(F)F)cc2ncc(N3CCN(C(C)=O)CC3)cc12)c1cccc([N+](=O)[O-])c1` (stereo not drawn) gave an IC50 in assay [2] of 0.0016 µM. That is a single-digit nanomolar value.
